This data set in a line: in vivo. As to conditions: for concentration at 1 day / concentration at 7 day / concentration at 14 day / concentration at 21 day / concentration at 28 day / concentration at 35 day / concentration at 42 day / concentration at 49 day / concentration at 56 day / concentration at 63 day / concentration at 70 day / concentration at 77 day / concentration at 84 day: male, Wistar Han, rat, in vivo. The method in brief: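 Three male Wistar Han rats (200-250 g), not fasted, received a single intramuscular gastrocnemius injection of prodrug suspension at 20 mg/kg EFdA equivalent. Tail-vein blood was taken into NaF/Na2EDTA, mixed 1:1 with 100 mM ammonium acetate pH 4, frozen, and analysed by LC-MS/MS.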

Like-named read-outs stand apart in the source and are kept apart here.

The record followed here is patent publication US20230151049A1, “Compounds Useful in HIV Therapy” (priority 2020, published 2023).

Take `C#C[C@]1(COP(=O)(N[C@@H](Cc2ccccc2)C(=O)OCCCCCCCCCCCCCCCCC)Oc2ccccc2)O[C@@H](n2cnc3c(N)nc(F)nc32)C[C@@H]1O` (single isomer, unassigned) [Example 20A]: the “Mean concentration of EFdA” value by setting is: (day 77, single IM Example 20A 57 mg/kg) “BQL (BQL = below quantification limit, 0.3 ng/mL for Example 20A and 0.1-0.3 ng/mL for EFdA)”; (day 84, single IM Example 20A 57 mg/kg) “BQL (BQL = below quantification limit, 0.3 ng/mL for Example 20A and 0.1-0.3 ng/mL for EFdA)”. Moreover, the concentration at 1 day (day 1, single IM Example 20A 57 mg/kg, read-out: Mean concentration of Example 20A) is 15.3 ng/mL. Besides, the concentration at 7 day (day 7, single IM Example 20A 57 mg/kg, read-out: Mean concentration of Example 20A) turned out to be 14.6 ng/mL. For the setting “day 14, single IM Example 20A 57 mg/kg, read-out: Mean concentration of Example 20A”, the concentration at 14 day was 13.8 ng/mL. Also, the concentration at 21 day (day 21, single IM Example 20A 57 mg/kg, read-out: Mean concentration of Example 20A) was 9.76 ng/mL. Also, the concentration at 28 day (day 28, single IM Example 20A 57 mg/kg, read-out: Mean concentration of Example 20A) was 8.45 ng/mL. Further, the concentration at 35 day (day 35, single IM Example 20A 57 mg/kg, read-out: Mean concentration of Example 20A) was found to be 13.3 ng/mL. Also, the concentration at 42 day (day 42, single IM Example 20A 57 mg/kg, read-out: Mean concentration of Example 20A) was 5.27 ng/mL. The concentration at 49 day (day 49, single IM Example 20A 57 mg/kg, read-out: Mean concentration of Example 20A) came to 4.25 ng/mL. Further, the concentration at 56 day (day 56, single IM Example 20A 57 mg/kg, read-out: Mean concentration of Example 20A) was 3.2 ng/mL. Also, where the note is “day 63, single IM Example 20A 57 mg/kg, read-out: Mean concentration of Example 20A”, the concentration at 63 day came out at 4.84 ng/mL. Besides, the concentration at 70 day (day 70, single IM Example 20A 57 mg/kg, read-out: Mean concentration of Example 20A) amounted to 2.74 ng/mL. Also, under “day 77, single IM Example 20A 57 mg/kg, read-out: Mean concentration of Example 20A”, the concentration at 77 day was 4 ng/mL. For the same compound, the concentration at 84 day (day 84, single IM Example 20A 57 mg/kg, read-out: Mean concentration of Example 20A) is 3.32 ng/mL.
Regarding `C#C[C@]1(COP(=O)(N[C@@H](Cc2ccccc2)C(=O)OC(CCCCCCCCCCC)CCCCCCCCCCC)Oc2ccccc2)O[C@@H](n2cnc3c(N)nc(F)nc32)C[C@@H]1O` (single isomer, unassigned) [Example 26A], the “Mean concentration of EFdA” value is, setting by setting: (day 1, single IM Example 26A 63 mg/kg) “BQL (BQL = below quantification limit, 0.3 ng/ml for both)”; (day 7, single IM Example 26A 63 mg/kg) “BQL (BQL = below quantification limit, 0.3 ng/ml for both)”; (day 14, single IM Example 26A 63 mg/kg) “BQL (BQL = below quantification limit, 0.3 ng/ml for both)”; (day 21, single IM Example 26A 63 mg/kg) “BQL (BQL = below quantification limit, 0.3 ng/ml for both)”; (day 28, single IM Example 26A 63 mg/kg) “BQL (BQL = below quantification limit, 0.3 ng/ml for both)”; (day 35, single IM Example 26A 63 mg/kg) “BQL (BQL = below quantification limit, 0.3 ng/ml for both)”. Besides, the “Mean concentration of EFdA” value by setting is: (day 42, single IM Example 26A 63 mg/kg) “BQL (BQL = below quantification limit, 0.3 ng/ml for both)”; (day 49, single IM Example 26A 63 mg/kg) “BQL (BQL = below quantification limit, 0.3 ng/ml for both)”; (day 56, single IM Example 26A 63 mg/kg) “BQL (BQL = below quantification limit, 0.3 ng/ml for both)”; (day 63, single IM Example 26A 63 mg/kg) “BQL (BQL = below quantification limit, 0.3 ng/ml for both)”; (day 70, single IM Example 26A 63 mg/kg) “BQL (BQL = below quantification limit, 0.3 ng/ml for both)”; (day 77, single IM Example 26A 63 mg/kg) “BQL (BQL = below quantification limit, 0.3 ng/ml for both)”. Also, the “Mean concentration of EFdA” value (day 84, single IM Example 26A 63 mg/kg) is given as “BQL (BQL = below quantification limit, 0.3 ng/ml for both)”. Under “day 1, single IM 63 mg/kg, read-out: Mean concentration of Example 26A”, the concentration at 1 day worked out at 72.7 ng/mL. Moreover, the concentration at 7 day (day 7, single IM 63 mg/kg, read-out: Mean concentration of Example 26A) turned out to be 37.6 ng/mL. Also, the concentration at 14 day (day 14, single IM 63 mg/kg, read-out: Mean concentration of Example 26A) was 33.8 ng/mL. In addition, the concentration at 21 day (day 21, single IM 63 mg/kg, read-out: Mean concentration of Example 26A) amounted to 22.9 ng/mL. In addition, where the note is “day 28, single IM 63 mg/kg, read-out: Mean concentration of Example 26A”, the concentration at 28 day was 18.5 ng/mL. Further, under “day 35, single IM 63 mg/kg, read-out: Mean concentration of Example 26A”, the concentration at 35 day is 14.4 ng/mL. Besides, under “day 42, single IM 63 mg/kg, read-out: Mean concentration of Example 26A”, the concentration at 42 day is 11.1 ng/mL. In addition, the concentration at 49 day (day 49, single IM 63 mg/kg, read-out: Mean concentration of Example 26A) is 9.62 ng/mL. Also, the concentration at 56 day (day 56, single IM 63 mg/kg, read-out: Mean concentration of Example 26A) is 9.8 ng/mL. Moreover, the concentration at 63 day (day 63, single IM 63 mg/kg, read-out: Mean concentration of Example 26A) was 11.5 ng/mL. Besides, the concentration at 70 day (day 70, single IM 63 mg/kg, read-out: Mean concentration of Example 26A) was 9.95 ng/mL. The concentration at 77 day (day 77, single IM 63 mg/kg, read-out: Mean concentration of Example 26A) worked out at 9.69 ng/mL. The concentration at 84 day (day 84, single IM 63 mg/kg, read-out: Mean concentration of Example 26A) stood at 7.43 ng/mL.
For `C#C[C@]1(COP(=O)(N[C@@H](C)C(=O)OC(CCCCCCCCCC)CCCCCCCCCC)Oc2ccccc2)O[C@@H](n2cnc3c(N)nc(F)nc32)C[C@@H]1O` (single isomer, unassigned) [Example 37A], the “Mean concentration of EFdA” value (day 21, single IM Example 37A 56 mg/kg) is reported as “BQL (BQL = below quantification limit, 0.3 ng/ml for both)”; the “Mean concentration of EFdA” value (day 28, single IM Example 37A 56 mg/kg) was “BQL (BQL = below quantification limit, 0.3 ng/ml for both)”; the “Mean concentration of EFdA” value (day 35, single IM Example 37A 56 mg/kg) is on record as “BQL (BQL = below quantification limit, 0.3 ng/ml for both)”; the “Mean concentration of EFdA” value (day 42, single IM Example 37A 56 mg/kg) is on record as “BQL (BQL = below quantification limit, 0.3 ng/ml for both)”; the “Mean concentration of EFdA” value (day 49, single IM Example 37A 56 mg/kg) was “BQL (BQL = below quantification limit, 0.3 ng/ml for both)”; the “Mean concentration of EFdA” value (day 56, single IM Example 37A 56 mg/kg) is “BQL (BQL = below quantification limit, 0.3 ng/ml for both)”. In addition, the “Mean concentration of EFdA” value is, setting by setting: (day 63, single IM Example 37A 56 mg/kg) “BQL (BQL = below quantification limit, 0.3 ng/ml for both)”; (day 70, single IM Example 37A 56 mg/kg) “BQL (BQL = below quantification limit, 0.3 ng/ml for both)”; (day 77, single IM Example 37A 56 mg/kg) “BQL (BQL = below quantification limit, 0.3 ng/ml for both)”; (day 84, single IM Example 37A 56 mg/kg) “BQL (BQL = below quantification limit, 0.3 ng/ml for both)”. Moreover, the concentration at 1 day (day 1, single IM Example 37A 56 mg/kg, read-out: Mean concentration of Example 37A) was determined as 17.9 ng/mL. Moreover, the concentration at 7 day (day 7, single IM Example 37A 56 mg/kg, read-out: Mean concentration of Example 37A) stood at 3.58 ng/mL. The concentration at 14 day (day 14, single IM Example 37A 56 mg/kg, read-out: Mean concentration of Example 37A) was found to be 3.8 ng/mL. In addition, where the note is “day 21, single IM Example 37A 56 mg/kg, read-out: Mean concentration of Example 37A”, the concentration at 21 day amounted to 5.16 ng/mL. The concentration at 28 day (day 28, single IM Example 37A 56 mg/kg, read-out: Mean concentration of Example 37A) came to 4.16 ng/mL. The concentration at 35 day (day 35, single IM Example 37A 56 mg/kg, read-out: Mean concentration of Example 37A) is 4.95 ng/mL. For the same compound, the concentration at 42 day (day 42, single IM Example 37A 56 mg/kg, read-out: Mean concentration of Example 37A) is 5.29 ng/mL. Moreover, where the note is “day 49, single IM Example 37A 56 mg/kg, read-out: Mean concentration of Example 37A”, the concentration at 49 day was found to be 4.89 ng/mL. The concentration at 56 day (day 56, single IM Example 37A 56 mg/kg, read-out: Mean concentration of Example 37A) is 4.94 ng/mL. For the same compound, the concentration at 63 day (day 63, single IM Example 37A 56 mg/kg, read-out: Mean concentration of Example 37A) was 4.46 ng/mL. Further, the concentration at 70 day (day 70, single IM Example 37A 56 mg/kg, read-out: Mean concentration of Example 37A) was found to be 3.78 ng/mL. Besides, for the setting “day 77, single IM Example 37A 56 mg/kg, read-out: Mean concentration of Example 37A”, the concentration at 77 day was found to be 3.46 ng/mL. In addition, the concentration at 84 day (day 84, single IM Example 37A 56 mg/kg, read-out: Mean concentration of Example 37A) turned out to be 3.32 ng/mL.
